Data published in US9315544B2, “Method of treating eosinophilia by administering an immunomodulating peptide” (National Tsing Hua University, priority 2012, dated 2016).

Assays:
IL-5 = assay: Cytokine ELISA of lung protein extract (IL-5); format: in vivo, BALB/c mouse; conditions: mIT+eIN, eIN+mIT+eIN and eIN+mIT groups
Source text: FIG. 4 illustrates experimental design. All groups except control group were immunized with mite crude extract allergen on days 1 and 8, then mite crude extract allergen intratracheally on day 15 in all mite treated group, BALB/c mouse were divided into six groups (1) control group (PBS), (2) mites delivered intratracheally (mIT, mite on day 15) alone, (3) CMP intranasal (eIN, CMP on days 1 to 22) alone, (4) preventive-treatment group (eIN+mIT, CMP on days 1 to 14, mite on day 15) (5) therapy-treatment group (mIT+eIN, mite on day 15, CMP on days 15 to 22), and (6) preventive- and therapeutic-treatment group (eIN+mIT+eIN, CMP on days 1 to 22, mite on day 15).
FIG. 9 illustrates inhibitory effect of CMP on lung protein extract. Lung protein extracts from different groups of mouse were assayed for the indicated cytokines. Data represent one of three independent experiments. Levels of CCL-11, IL-5, IL-13 and IL-17A/F levels in lung protein extracts from mouse from treatment groups were measured by Enzyme-linked immunosorbent assay (ELISA). Each result was expressed as the mean±S.D., n=4. **, P<0.01, ***, P<0.001. […]
Levels of cytokines from lung protein extract were measured by ELISA. […] The microplates were read at 450 nm with an ELISA reader (Thermo Labsystems, Waltham, Mass., USA). […]

human lung cancer H460 = assay: Transwell migration assay, H460; format: cell-based; conditions: 12.5 μM CMP pretreatment 30 min, 18 hours
Protocol: FIG. 10 illustrates Tumor migration inhibition by CMP. A549, H460 and mouse colon cancer cells were incubated with CMP at 37° C. for 30 min before adding to the top chamber of transwell membranes in 24-well dishes at a density of 2×10^4 cells/well. Data represented the mean±S.E. of triplicate samples from a representative experiment. The experiment was repeated at least three times with similar results
Cancer cell inhibition by CMP was performed in a 24-well Transwell chamber consisting of a cell culture insert (6.4 mm diameter, 8-1 μm pore polyethylene tetraphtalate membrane, [Becton Dickinson]) set in each well of a 24-well companion plate (Becton Dickinson). Briefly, 3×10^4 cancer cells were suspended and pretreated with 5 and 12.5 μM CMP for 30 min in a total volume of 200 μL. Cell suspensions were inoculated into the upper chamber of an insert, 5% fetal bovine serum (FBS) in medium as a chemoattractant was added to the plate well in the bottom chamber, and incubated for 18 hours in a humidified incubator at 37° C. with 5% CO2. The non-migratory cells on the upper membrane surface were removed with a cotton swab, and the migratory cells attached to the lower membrane surface were fixed with 4% paraformaldehyde and stained with 0.2% crystal violet. The number of migrated cells was counted in four randomly selected high power fields under microscope. […]

## NYRWRCKNQN (CMP)
IL-5
  IL-5 levels in lung protein extract compared with mIT group: lower
Human lung cancer H460
  decrease of migration activity: 50%
